Experimental findings from ChEMBL document CHEMBL1146125, “Ultra-potent P1 modified arylsulfonamide HIV protease inhibitors: the discovery of GW0385” (Bioorg Med Chem Lett, 2006) are described below.

Series [1] is described as follows: Oral bioavailability in rat at 1 mg/kg. It counts as ADME, organism-based. The conditions noted are these: in vivo.
Series [2] is described as follows: Clearance in rat at 1 mg/kg, iv. It counts as ADME, organism-based. Also noted: dose 1 mg/kg, route intravenous. The following applies: in vivo.
Series [3] deals with MT4. In words: Antiviral activity against HIV D545701 in MT4 cells. It counts as functional, cell-based. The following applies: Homo sapiens.
Series [4] in a line: Half life in rat at 1 mg/kg. The series is classed as ADME, organism-based. Also noted: dose 1 mg/kg. The following applies: in vivo.
Series [5] deals with MT4. Nature of the series: Antiviral activity against HIV1 EP13 in MT4 cells. It counts as functional, cell-based. The following applies: Homo sapiens.
The subject of series [6] is MT4. In words: Antiviral activity against HIV1 HXB2 in MT4 cells. It counts as functional, cell-based. The conditions noted are these: Homo sapiens.
Series [7] concerns MT4. Nature of the series: Antiviral activity against HIV1 I54V in MT4 cells. It counts as functional, cell-based. The following applies: Homo sapiens.
Series [8] relates to MT4. In words: Antiviral activity against amprenavir resistant HIV1 468 in MT4 cells. The conditions noted are these: Homo sapiens. The series is classed as functional, cell-based.
For series [9], the system named is MT4. Nature of the series: Antiviral activity against triple multi PI resistant HIV1 in MT4 cells. The series is classed as functional, cell-based. The conditions noted are these: Homo sapiens.
Series [10] is described as follows: Half life in rat at 1 mg/kg co-administered with 4 mg/kg ritonavir. It counts as ADME, organism-based. The following applies: in vivo.
Series [11] in a line: Clearance in dog at 1 mg/kg, iv. It counts as ADME, organism-based, Canis lupus familiaris. The arrangement: dose 1 mg/kg, route intravenous. The following applies: in vivo.
Series [12] relates to MT4. In words: Antiviral activity against multi PI resistant HIV1 EP14 in MT4 cells. The following applies: Homo sapiens. The series is classed as functional, cell-based.
In series [13] the test system is MT4. Nature of the series: Antiviral activity against multi PI resistant HIV1 31246 in MT4 cells. It counts as functional, cell-based. The following applies: Homo sapiens.
In series [14] the test system is MT4. In words: Antiviral activity against nelfinavir resistant HIV1 14330 in MT4 cells. It counts as functional, cell-based. The following applies: Homo sapiens.
Series [15] is described as follows: Half life in dog at 1 mg/kg co-administered with 4 mg/kg ritonavir. The series is classed as ADME, organism-based, Canis lupus familiaris. The following applies: in vivo.
The nature of series [16]: Half life in dog at 1 mg/kg. The series is classed as ADME, organism-based, Canis lupus familiaris. Also noted: dose 1 mg/kg. The conditions noted are these: in vivo.
Series [17] can be described thus: Bioavailability in dog at 1 mg/kg co-administered with 4 mg/kg ritonavir. The following applies: in vivo. It counts as ADME, organism-based, Canis lupus familiaris.
In series [18] the test system is MT4. Nature of the series: Antiviral activity against HIV1 I50V in MT4 cells. It counts as functional, cell-based. The following applies: Homo sapiens.
A short description of series [19]: Oral bioavailability in dog at 1 mg/kg. The conditions noted are these: in vivo. It counts as ADME, organism-based, Canis lupus familiaris.
Series [20] concerns MT4. Nature of the series: Antiviral activity against indinavir resistant HIV1 30813 in MT4 cells. The series is classed as functional, cell-based. The following applies: Homo sapiens.
A short description of series [21]: Bioavailability in rat at 1 mg/kg co-administered with 4 mg/kg ritonavir. The conditions noted are these: in vivo. The series is classed as ADME, organism-based.

The structures appear in SMILES notation.

As a reminder, the bioavailability is dose-corrected exposure relative to a reference, in per cent. The term clearance denotes a measure of how efficiently the substance is removed, as volume per time. Read a low clearance as inefficient removal. The term IC50 denotes the concentration at which inhibition is half-maximal. Read a low IC50 as greater potency. The half-life is how long it takes for the measured level to halve. Consider `CC(C)CN(C[C@@H](O)[C@H](Cc1ccc(OCc2ccccn2)cc1)NC(=O)O[C@H]1CO[C@H]2OCC[C@H]21)S(=O)(=O)c1ccc2c(c1)OCO2`, for which, in series [1], the bioavailability was 21%. Besides, the clearance in [2] was determined as 20 mL/min/kg. In addition, the IC50 was 4.5 nM in series [3], 1.2 nM in series [5] and 1.2 nM in [6]. Besides, the half-life in series [4] was 0.91 h.

Turning to `Cc1nc(COc2ccc(C[C@H](NC(=O)O[C@H]3CO[C@H]4OCC[C@H]43)[C@H](O)CN(CC(C)C)S(=O)(=O)c3ccc4c(c3)OCO4)cc2)cs1` [BRECANAVIR], the IC50 was 0.22 nM in series [7]; 8.2 nM in series [8]; 5.4 nM in series [9]; 0.77 nM in series [12]; 1.7 nM in series [13]; 0.45 nM in series [14]. The IC50 in series [5] was determined as 1.1 nM; in series [18], 1.6 nM; in series [20], 0.46 nM. Moreover, the bioavailability came to 10% in [1], 86% in series [17], 20% in series [19] and 62% in series [21]. For the same compound, the half-life in series [10] is 1.1 h; in [4], 1.4 h; in [15] it was 1.2 h; in [16] it was 0.87 h. In addition, the clearance came out at 10 mL/min/kg in series [2] and 19 mL/min/kg in series [11].

On to `CC(C)CN(C[C@@H](O)[C@H](Cc1ccc(OCCc2cccs2)cc1)NC(=O)O[C@H]1CO[C@H]2OCC[C@H]21)S(=O)(=O)c1ccc2c(c1)OCO2`, for which the bioavailability in [1] stood at 15%; in series [19] it was 18%. For the same compound, the clearance in series [2] came out at 27 mL/min/kg; in series [11], 22 mL/min/kg. In addition, the IC50 in series [3] was found to be 11 nM; in series [5], 3.4 nM; in [6] it was 2.3 nM. In addition, the half-life in series [4] was 2.2 h; in series [16] it was 0.5 h.

For the compound `CC(C)CN(C[C@@H](O)[C@H](Cc1ccc(OCCc2ccsc2)cc1)NC(=O)O[C@H]1CO[C@H]2OCC[C@H]21)S(=O)(=O)c1ccc2c(c1)OCO2`, the IC50 worked out at 44 nM in [3], 17 nM in series [5] and 9.5 nM in series [6].

For `CC(C)CN(C[C@@H](O)[C@H](Cc1ccc(Oc2ccc(CNS(C)(=O)=O)cc2)cc1)NC(=O)O[C@H]1CO[C@H]2OCC[C@H]21)S(=O)(=O)c1ccc2c(c1)OCO2`, the IC50 came to 11 nM in series [3], 5.3 nM in series [5] and 7.2 nM in [6].

With `CC(C)CN(C[C@@H](O)[C@H](Cc1ccc(OCc2ccccc2)cc1)NC(=O)O[C@H]1CO[C@H]2OCC[C@H]21)S(=O)(=O)c1ccc2c(c1)OCO2`, the IC50 in series [3] is 9.6 nM; in series [5], 5.9 nM; in [6], 3.1 nM.

For the compound `CC(C)CN(C[C@@H](O)[C@H](Cc1ccc(Oc2cccnc2)cc1)NC(=O)O[C@H]1CO[C@H]2OCC[C@H]21)S(=O)(=O)c1ccc2c(c1)OCO2`, the IC50 in series [3] stood at 9.5 nM; in [5], 2.4 nM; in series [6], 1.1 nM.

Turning to `CC(C)CN(C[C@@H](O)[C@H](Cc1ccc(OCc2ncc[nH]2)cc1)NC(=O)O[C@H]1CO[C@H]2OCC[C@H]21)S(=O)(=O)c1ccc2c(c1)OCO2`, the IC50 was found to be 16 nM in [3], 20 nM in [5] and 69 nM in series [6].
